In patent US7772228B2, “Method for treatment of bacterial infections with once or twice-weekly administered rifalazil” (priority 1998, dated 2010):
≈ marks a conversion by molar mass, not a printed value. Read-outs that look alike come from different tables or passages of the source.

Key:
M. tuberculosis [1] = format: cell-based, Mycobacterium tuberculosis; settings: comparison of MIC50 and MIC90, clinical isolates
[2] = system: extracellular M. tuberculosis; assay: MIC and MBC against extracellular bacteria; format: cell-based, Mycobacterium tuberculosis
M. intracellulare [3] = assay: Mice infected with M. intracellulare, CFUs in organs; format: in vivo; settings: after four and eight weeks of treatment
[4] = system: Chlamydia pneumoniae strain AR-39; assay: Mouse model infected with Chlamydia pneumoniae; format: in vivo; settings: intraperitoneal 1 mg/kg QID for three days; five days after cessation
Method: Sensitivity testing was conducted in cell cultures against Chlamydia pneumoniae strain TW-l 83 using rifalazil, clanthromycin, or azithromycin. […] The in vivo testing of rifalazil used a mouse model infected with Chlamydia pneumoniae strain AR-39. […] All control animals remained infected.

[5] = Multiple-dose oral toxicology studies in rats; format: in vivo
Method: In chronic studies with dogs and rats, the no-observed-adverse-effect-level was 1000 mg/kg. […] Significant partitioning of drug-related radioactivity to the formed elements of the blood was observed. […] The urine contained a small amount (5.5%) of radioactivity.
Single-dose and multiple-dose oral toxicology studies were conducted in mice, rats, and dogs. In addition, to maximize systemic exposure, single-dose intravenous (IV) and intraperitoneal (IP) studies were conducted in rats and mice. Four-week and 13-week oral studies in dogs and rats and 26-week oral studies in rats included standard clinical measurements and physical and pathological evaluations.

[6] = human, in vivo
Method: The third trial (003) was a randomized, rising, double-blind, multiple-dose, placebo-controlled study where subjects were observed during the 14-consecutive days of drug administration in dosages 0, 5 and 25 mg/day and for an additional 14 days without medication. All subjects received the dose within 30 minutes after eating a standardized breakfast. Subjects were divided into two groups. In Group 1, eight subjects were randomized to a daily 25 mg dose of rifalazil and four subjects were randomized to placebo. Numerous adverse reactions began to appear with the 25 mg dose several days after dosing and it became apparent that 25 mg daily dose was not safe. Consequently, after review of the safety data, the study protocol was amended to proceed with a lower dose of 5 mg in group 2. Group 2 consisted of eight subjects randomized to a daily 5 mg dose of rifalazil and four subjects randomized to placebo.
In the clinical trials 001 and 002 all patients were submitted to laboratory testing where the hematology, serum chemistry and urinanalysis were examined prior to dosing, during dosing and at least 14 days following the cessation of drug administration.
(§1) Laboratory testing regimen for 003 and 004 trials was the same as for 001 and 002 trials.
The onset and magnitude of decrease in hematologic parameters appeared to be related to this dose. In order to better visualize the drop and subsequent recovery in these parameters, the data were graphed to synchronize subjects to their last dose.

[7] = human, in vivo; remark: listed apart in the source
Method: The fourth trial (004) was a also a randomized, rising, double-blind, multiple-dose, placebo-controlled study. In this trial, weekly doses of placebo or rifalazil (25 mg or 50 mg) were administered to the subjects for a total of 4 weeks. All subjects received the dose within 30 minutes after eating a standardized breakfast and were monitored for an additional 14 days after the last dose. Four subjects were randomized to placebo, six subjects to 25 mg rifalazil, and eight subjects to 50 mg rifalazil.
as §1
Results obtained in 004 clinical trial where the healthy volunteers received only one dose a week for four weeks are seen in FIGS. 8-10.

clinical = settings: human, in vivo
Text: Attempts were made to analyze the multiple-dose pharmacokinetics using a linear 3-compartment model, and a 3-compartment model incorporating enzyme induction. However, neither multi-compartmental model accurately characterized the pharmacokinetic parameters in all subjects. Daily dosing and related early terminations due to adverse reactions, differences in bioavailability from a food effect, and nonconnective dose administration further complicated these analyses. Therefore, only noncompartmental pharmacokinetic parameters were derived for clinical trials 003 and 004. For the 004 clinical trial, the pharmacokinetic analysis of this multiple-dose study was limited to a comparison of the noncompartmental parameters obtained from the first dose (Day 1) data versus the fourth (last) dose (Day 22). Because of extensive sampling after the fourth dose, this study yielded the most complete data about terminal elimination of rifalazil given in a multiple-dose regimen.

M. intracellulare [8] = settings: 31 strains, agar dilution; cited from earlier work
M. avium = settings: 18 strains, agar dilution; cited from earlier work
M. tuberculosis [9] = settings: cited from earlier work
[10] = system: extracellular M. tuberculosis; settings: cited from earlier work
M. tuberculosis [11] = settings: cited from earlier work; remark: listed apart in the source
Helicobacter pylori = system: Helicobacter pylori; set-up: unit of the concentration uncertain; settings: time-kill, broth medium, 0.04 (unit uncertain); cited from earlier work
[12] = Ref. 7, 7H11 agar, 22 strains (rif^r and rif^s)

CO[C@H]1/C=C/O[C@@]2(C)Oc3c(C)c(O)c4c(=O)c(c5oc6cc(N7CCN(CC(C)C)CC7)cc(O)c6nc-5c4c3C2=O)NC(=O)/C(C)=C\C=C\[C@H](C)[C@H](O)[C@@H](C)[C@@H](O)[C@@H](C)[C@H](OC(C)=O)[C@@H]1C [Rifalazil, 3′-hydroxy-5′-(4-isobutyl-1-piperazinyl)benzoxasinorifamycin]
fold greater activity than rifabutin (M. tuberculosis [1]): 4 fold | fold greater activity than rifampin (M. tuberculosis [1]): > 64 fold | MIC and MBC fold lower than rifampin ([2]; extracellular bacteria): at least 10 fold | MBCs relative to the MICs ([2]; typical): 2-4 fold | number of CFUs in organs (M. intracellulare [3]): significantly reduced the number of colony forming units (CFUs) in organs | Chlamydia pneumoniae in the lungs [4]: not detectable | doses with dose-related lymphocytic depletion in the spleens ([5]; 26-week study): > 30 mg/kg/day | no-observed-adverse-effect-level ([5]; chronic studies, rats): 1000 mg/kg | doses at which hematological changes were noted ([5]; multiple-dose oral, rats): > 30 mg/kg | WBC counts, level of continuous drop [6]: around 2.0 K/CU MM | nadir of mean WBC after the last dose [6]: 1 to 2 days | time for hematologic parameters to return to normal after the last dose [6]: ≤ 14 days | time for hematologic parameters to return to normal after the last dose [7]: ≤ 14 days | increase of AUC(0-24) on Day 22 relative to Day 1 (clinical; 25 mg): approximately 17% | half-life (clinical; 25 mg, apparent terminal half-life, range): 29.5 to 107 h | increase of AUC(0-24) on Day 22 relative to Day 1 (clinical; 50 mg): ~27% | half-life (clinical; 50 mg, apparent terminal half-life, range): 65.9 to 148 h | half-life (clinical; Half-life distribution t½ (mean)): 10.5 h | half-life (clinical; Half-life elimination t½ (mean)): ~61 h | Tmax (clinical; Tmax (mean)): 5.7 h | MIC90 (M. intracellulare [8]): 0.1 µg/mL (≈ 0.106 µM) | MIC90 (M. avium): 1.56 µg/mL (≈ 1.66 µM) | MIC90 (M. tuberculosis [9]; 22 strains, agar dilution): 12.5 µg/mL (≈ 13.3 µM) | MIC90 (M. tuberculosis [9]; [12]): 12.5 µg/mL (≈ 13.3 µM) | MIC Range (M. tuberculosis [9]; [12]): ≦0.0125 to 12.5^ μg/mL | MIC90 (M. tuberculosis [9]; Ref. 8, 7H11 agar, 16 strains (rif^s)): ≦0.0125 μg/mL | MBC ([10]; strain Atencio): 0.008 µg/mL (≈ 0.0085 µM) | MIC ([10]; strain Atencio): 0.001 µg/mL (≈ 0.00106 µM) | MBC ([10]; strain Erdman): 0.004 µg/mL (≈ 0.00425 µM) | MIC ([10]; strain Erdman): 0.002 µg/mL (≈ 0.00213 µM) | MBC ([10]; strain H37Rv): 0.031 µg/mL (≈ 0.0329 µM) | MIC ([10]; strain H37Rv): 0.008 µg/mL (≈ 0.0085 µM) | lesions in the lung (M. tuberculosis [11]; 10 mg/kg six times a week): no lesions observed in the lung | reduction of log CFU in lungs (M. tuberculosis [11]; 10 mg/kg six times a week): about 80% | reduction of the bacteria (M. tuberculosis [11]; Twice-a-week or once-a-week administration): about 35% | reduction in CFU (M. tuberculosis [11]; once-a-week administration of these very high dosages): about 42% | CFUs at 24 hours lower than the control at zero hours (Helicobacter pylori): more than 4.5 log
